# Experiments:
# 4T1 cells = assay: MTT activity assay in 4T1 cells; format: cell-based, mouse; conditions: 4T1 cells, 0, 250, 500 and 1000 nM, 48 hours
# Procedure: FIG. 21A-21E. In vivo efficacy of apMNKQ2 in a mouse metastatic model with an orthotopic xenograft of 4T1 cells. (A) Effect of apMNKQ2 aptamer on the proliferation of 4T1 cells (mouse breast tumor line). 4T1 cells were seeded in p96 at a density of 1.5×10^3 cells/well. […] The graph (FIG. 21A) represents the means±SEM of 3 independent experiments. (B) Effect of apMNKQ2 aptamer on migration and invasion of 4T1 cells. Cells were seeded in p6 at a density of 2×10^5 cells/well and transfected with 500 nM apMNKQ2 at 24 hours. At 6 hours they were deprived of serum, and after 24 hours they were collected and re-seeded (4×10^4 cells/well) in a transwell […]. At 24 hours (migration) or 48 h (invasion), the transwell membranes were stained with Hoechst and the cells that had passed through the fluorescence microscopy were quantified. Values (FIG. 21B) represent the mean±SEM of 2-3 independent experiments. In vivo efficacy of apMNKQ2 in a mouse metastatic model with an orthotopic xenograft of 4T1 cells. […] The number of metastases is analyzed by the reverse staining method (with Chinese ink) and the metastases grouped according to their size in four groups (0.5, 1, 2 and >2). […]
# MTT activity. […] After 48 hours, the reduction of MTT was determined by means of spectrophotometry in Infinite F200 (TECAN, Switzerland) at 540 nm.
# [1] = tested on: orthotopic xenograft of MDA-MB-231 cells; assay: In vivo efficacy in orthotopic xenograft mouse model; parameters: species or system nude mice
# Procedure: FIGS. 19A-19D. In vivo efficacy of apMNKQ2 in an orthotopic xenograft mouse model of MDA-MB-231 cells. (A) Evolution of the weight of the mouse over days of treatment with apMNKQ2 (FIG. 19A). (B) Relative tumor volume (RTV) over days of treatment (FIG. 19B). (C) Tumor weight after sacrificing the animal (FIG. 19C). (D) Immunohistochemical determination of proliferating cell nuclear antigen (PCNA) levels (FIG. 19D). The analysis of the positive nuclei was performed with the imageJ program. The boxes represent the mean±the maximum and minimum of 5-8 animals (*p<0.05 with respect to the control group).
# FIGS. 20A-20D. Activation of apoptosis and expression of EMT markers in tumors from the mice with an orthotopic xenograft of MDA-MB-231 cells of FIG. 19. Immunodetection with specific antibodies by SDS-PAGE 12% of “cleaved” PARP ([…]), a-Spectrin (FIG. 20B) and the anti-apoptotic protein MCL1 (FIG. 20C) in tissue of mice treated with 1.8 mg/Kg of apMNKQ2 or with the vehicle. Expression levels of occludin (epithelial status marker) and FSP1 (mesenchymal marker) in tissue of mice treated with 1.8 mg/kg of apMNKQ2 or with the vehicle using qPCR (FIG. 20D). The values obtained were normalized with respect to β-actin. The boxes represent the mean±the maximum and the minimum of 4-5 animals (*p<0.05, **p<0.01 with respect to the control group).
# For transfection in the in vivo model, the in vivo-jetPEI® transfection system (Polyplus, France) was used according to the manufacturer's instructions. The aptamer and jetPEI® reagent were separately diluted in glucose for the subsequent addition of the jetPEI® complex to that of the aptamer, such that the final glucose concentration is 5%. It was added to the cultures or injected into animals according to the assay.
# Total RNA was obtained from cells using the NucleoZOL reagent ([…]-NAGEL, Germany) according to the manufacturer's instructions. Obtained RNA purity and integrity analyses were performed using the Experion™ RNA HighSens Analysis Kit chip (BioRad, USA). For the quantitative analysis of the mRNA levels, cDNAs were obtained with the SensiFAST™ cDNA synthesis kit (Bioline, United Kingdom) and real-time PCR was carried out in an IQ5 thermocycler (BioRad, USA) with the FastGene IC Green 2×qPCR Universal Mix kit (NIPPON Genetics, Germany).
# In vivo assays were performed with nude mice inoculated with MDA-MB-231 cells and orthotopic tumors were generated. When these tumors reached a volume of 100 mm^3, the mice were randomly distributed into two groups of 9 animals. The treated group (1.8 mg/kg) was intravenously injected with 100 μl of 5% glucose containing 46 μg (5 nmol) of apMNKQ2 and 5.6 μl of jetPEI® transfectant (N/P ratio of 6) three times a week. The control group was injected with the 5% glucose solution containing the same volume of in vivo-jetPEI® reagent and aptamer buffer. As monitoring parameters, the tumor volume, assuming they are ellipsoids, and the weight of the animals were measured. At 18 days, the animals were sacrificed and the tumors were weighed and divided into two fragments, one to be frozen and another for fixing and inclusion in paraffin.
# The immunohistochemical determination of the proliferating cell nuclear antigen (PCNA), sections of the paraffinized samples were made and they were then deparaffinized and rehydrated. The antigen was unmasked by incubating the sections in a 10 mM citrate buffer in a pressure cooker at maximum pressure for 2 minutes. After performing two quick washes with distilled water and two 5-minute washes with TBS, the sections were incubated in a blocking solution (3% fetal bovine serum in TBS with 0.05% triton X-100) for 30 minutes at room temperature. The samples were then incubated with the primary antibody PCNA (Santa Cruz Biotechnology, USA) at a dilution of 1:100 at room temperature overnight. […]
# [2] = tumors of mice treated with 1.8 mg/kg vs vehicle
substance,measurement,setting,value
"5′TGGGGTGGGCGGGCGGGGGTGGGGGTGGT-3′ (DNA, backbone and methylation of C not given here; further chemistry not fully specified) [apMNKQ2]",cell proliferation as measured by MTT activity,4T1 cells,does not affect cell proliferation
same,decrease of cell proliferation in the tumor (PCNA immunohistochemistry) with respect to the control group,"[1]; 1.8 mg/kg intravenously three times a week, 18 days",50%
same,decrease of the weight of the tumor after sacrificing the animals,"[1]; 1.8 mg/kg intravenously three times a week, 18 days, not statistically significant",27%
same,weight of the mice,"[1]; 1.8 mg/kg intravenously with jetPEI three times a week, 18 days",no changes
same,relative size of the tumor (relative tumor volume) vs control group,"[1]; intravenous with jetPEI three times a week, statistically significant at 7 and 18 days of treatment",smaller
same,"apoptosis in tumors (cleaved PARP, α-spectrin, MCL1 immunodetection)",[1]; tumors of mice treated with 1.8 mg/Kg vs vehicle,apoptotic effect
same,mRNA levels of the mesenchymal marker FSP1 in tumors (qPCR),[1]; [2],decrease (although not significant)
same,occludin epithelial marker expression in tumors (qPCR),[1]; [2],increases significantly

# — patent US12492403B2, “Aptamers and the use thereof in the treatment of cancer” (FUNDACIÓN PARA LA INVESTIGACIÓN BIOMÉDICA DEL HOSPITAL …, priority 2018, dated 2025)
